Here are results for 29 compounds from patent publication EP4806900A2, “RAS INHIBITORS” (Revolution Medicines, Inc., priority 2019, dated 2021).

As a reminder, the IC50 is the concentration that gives 50% inhibition.

“And” between values parts separate entries of the source, which are not always exact repeats. Identical values can stand only once.

In the first assay the test system is NCI-H358 (K-Ras G12C). Kind of assay: CellTiter-Glo cell viability assay, NCI-H358. In kind it is cell-based, human. The settings on record: Homo sapiens, NCI-H358, Table 5; read-out: H358 Cell Viability assay data (K-Ras G12C, IC50). As to the method:
Note - The following protocol describes a procedure for monitoring cell viability of K-Ras mutant cancer cell lines in response to a compound of the invention. Other RAS isoforms may be employed, though the number of cells to be seeded will vary based on cell line used.
Test compounds (132.5 nL) were directly dispensed into the assay plates containing cells. […] On day 5, assay plates and their contents were equilibrated to room temperature for approximately 30 minutes. […] Luminescence was measured using the PerkinElmer Enspire. Data were normalized by the following: (Sample signal/Avg. DMSO)*100. The data were fit using a four-parameter logistic fit.
Background: In ATP-based viability assays light output follows the ATP content of the culture.
For `C=CC(=O)N1CC(CN2C(=O)O[C@H](C)[C@H]2C(=O)N[C@H]2Cc3cccc(c3)-c3ccc4c(c3)c(c(-c3cccnc3[C@H](C)OC)n4CC)CC(C)(C)COC(=O)[C@@H]3CCCN(N3)C2=O)C1` (atropisomer, axis not shown) [Compound A460], the IC50 was greater than 1 µM.

On to `C=CC(=O)N1CC[C@H](C(=O)N(C)[C@H](C(=O)N[C@H]2CC3=CCCN(C3)c3ccc4c(c3)c(c(-c3cccnc3[C@H](C)OC)n4CC)CC(C)(C)COC(=O)[C@@H]3CCCN(N3)C2=O)C(C)C)C1` (atropisomer, axis not shown) [Compound A486], for which the IC50 was in the range of 0.1 to 1 µM. Take `C=CC(=O)N1CC[C@H](C(=O)N(C)C(C(=O)N[C@H]2C[C@H]3CN(CCO3)c3ccc4c(c3)c(c(-c3cccnc3[C@H](C)OC)n4CC)CC(C)(C)COC(=O)[C@@H]3CCCN(N3)C2=O)C(C)C)C1` (some centres unmarked) [Compound A507]: the IC50 lay in the range of 0.1 to 1 µM. Turning to `CO[C@@H](C)c1ncc(N2CCN(C)CC2)cc1-c1c2c3cc(ccc3n1CC(F)(F)F)-c1cccc(c1)C[C@H](NC(=O)[C@H](C(C)C)N(C)C(=O)C1(F)CCN(C(=O)C#CC(C)(C)N(C)C)CC1)C(=O)N1CCC[C@H](N1)C(=O)OCC(C)(C)C2` [Compound A542, 1-(4-(dimethylamino)-4-methylpent-2-ynoyl)-4-fluoro-N-((2S)-1-(((6^1S,4S)-1^2-(2-((S)-1-methoxyethyl)-5-(4-methylpiperazin-1-yl)pyridin-3-yl)-10,10-dimethyl-5,7-dioxo-1^1-(2,2,2-trifluoroethyl)-6^1,6^2,6^3,6^4,6^5,6^6-hexahydro-1^1H-8-oxa-1(5,3)-indola-6(1,3)-pyridazina-2(1,3)-benzenacycloundecaphane-4-yl)amino)-3-methyl-1-oxobutan-2-yl)-N-methylpiperidine-4-carboxamide], the IC50 was less than 0.01 µM.

The assay is the same for the next values; noted with them: Homo sapiens, NCI-H358, read-out: H358 Cell Viability assay data (K-Ras G12C, IC50, uM), Table 5.
In the case of `C=CC(=O)N1CC[C@H](C(=O)N(C)[C@H](C(=O)N[C@H]2Cc3cc(O)cc(c3)-c3ccc4c(c3)c(c(-c3cc(CN(C)C)cnc3[C@H](C)OC)n4CC)CC(C)(C)COC(=O)[C@@H]3CCCN(N3)C2=O)C(C)C)C1` (single isomer, unassigned) [Compound A537], the IC50 was less than 0.01 µM.

Turning to `C=CC(=O)N1CC[C@H](C(=O)N(C)[C@H](C(=O)N[C@H]2Cc3cc(O)cc(c3)-c3ccc4c(c3)c(c(-c3cccnc3)n4C3CC3)CC(C)(C)COC(=O)[C@@H]3CCCN(N3)C2=O)C(C)C)C1` [Compound A160], the IC50 was in the range of 0.1 to 1 µM.

On to `CCn1c(-c2cccnc2COC)c2c3cc(ccc31)-c1cc(C)cc(c1)C[C@H](NC(=O)[C@H](C(C)C)N(C)C(=O)[C@H]1CCN(C(=O)C#CCN(C)C)C1)C(=O)N1CCC[C@H](N1)C(=O)OCC(C)(C)C2` [Compound A157], for which the IC50 was less than 0.01 µM. As for `C=CC(=O)N1CC[C@H](C(=O)N(C)[C@H](C(=O)N[C@H]2Cc3cc(O)cc(c3)-c3ccc4c(c3)c(c(-c3cc(CN(C)C)cnc3COC)n4CC)CC(C)(C)COC(=O)[C@@H]3CCCN(N3)C2=O)C(C)C)C1` [Compound A149], the 50% inhibitory concentration (IC50) is 0.01 to 0.1 µM.

The same assay, now with this note: Table 5; read-out: H358 Cell Viability assay data (K-Ras G12C, IC50).
In the case of `CCn1c(-c2ccccc2COC)c2c3cc(ccc31)-c1cc(O)cc(c1)C[C@H](NC(=O)[C@H](C(C)C)N(C)C(=O)[C@H]1CCN(C(=O)/C=C/CN(C)C)C1)C(=O)N1CCC[C@H](N1)C(=O)OCC(C)(C)C2` [Compound A79], the IC50 was in the range of 0.01 to 0.1 µM. For `C=CC(=O)N1CC[C@H](C(=O)N(C)[C@H](C(=O)N[C@H]2Cc3cc(O)cc(c3)-c3ccc4c(c3)c(c(-c3ccc(CN(C)C)cc3)n4CC)CC(C)(C)COC(=O)[C@@H]3CCCN(N3)C2=O)C(C)C)C1` [Compound A3], the IC50 lay in the range of 0.1 to 1 µM. Same read-out and setting: the same measure for `C=CC(=O)N1CC[C@H](C(=O)N(C)[C@H](C(=O)N[C@H]2Cc3cc(cc(O)c3F)-c3ccc4c(c3)c(c(-c3ccccc3CCOC)n4CC)CC(C)(C)COC(=O)[C@@H]3CCCN(N3)C2=O)C(C)C)C1` [Compound A9]: 0.1 to 1 µM; for `C=CC(=O)N1CC[C@H](C(=O)N(C)[C@H](C(=O)N[C@H]2Cc3cc(O)cc(c3)-c3ccc4c(c3)c(c(C3=C(COC)CCCC3)n4CC)CC(C)(C)COC(=O)[C@@H]3CCCN(N3)C2=O)C(C)C)C1` [Compound A64]: 0.01 to 0.1 µM. On the same count and under the same terms, the value for `C=CC(=O)N1CC[C@H](C(=O)N(C)[C@H](C(=O)N[C@H]2Cc3cc(O)cc(c3)-c3cc(F)c4c(c3)c(c(-c3ccccc3CCOC)n4CC)CC(C)(C)COC(=O)[C@@H]3CCCN(N3)C2=O)C(C)C)C1` [Compound A53] was 0.1 to 1 µM. `C=CC(=O)N1CC[C@H](C(=O)N(C)[C@H](C(=O)N[C@H]2Cc3cc(O)cc(c3)-c3ccc4c(c3)c(c(-c3cccnc3COCC)n4CC)CC(C)(C)COC(=O)[C@@H]3CCCN(N3)C2=O)C(C)C)C1` [Compound A44]: the IC50 was 0.01 to 0.1 µM. On to `C=CC(=O)N1CC[C@H](C(=O)N(C)[C@H](C(=O)N[C@H]2Cc3cc(O)cc(c3)-c3ccc4c(c3)c(c(-c3ccccc3OC)n4CC)CC(C)(C)COC(=O)[C@@H]3CCCN(N3)C2=O)C(C)C)C1` [Compound A17], for which the IC50 lay in the range of 0.1 to 1 µM. On to `C=CC(=O)N1CC2CCC1CN2C(=O)N(C)[C@H](C(=O)N[C@H]1Cc2nc(cs2)-c2ccc3c(c2)c(c(-c2cccnc2[C@H](C)OC)n3CC)CC(C)(C)COC(=O)[C@@H]2CCCN(N2)C1=O)C(C)C` [Compound A420], for which the IC50 was 0.01 to 0.1 µM. On the same count and under the same terms, the value for “(2R)-2-(((1-(4-(dimethylamino)-4-methylpent-2-ynoyl)azetidin-3-yl)oxy)methyl)-N-((6^3S,4S)-1^1-ethyl-1^2-(2-((S)-1-methoxyethyl)pyridin-3-yl)-10,10-dimethyl-5,7-dioxo-6^1,6^2,6^3,6^4,6^5,6^6-hexahydro-1^1H-8-oxa-1(5,3)-indola-6(1,3)-pyridazina-2(1,3)-benzenacycloundecaphane-4-yl)-3-methylbutanamide [Compound A316]” was less than 0.01 µM. As for `CCn1c(-c2cccnc2[C@H](C)OC)c2c3cc(ccc31)-c1csc(n1)C[C@H](NC(=O)[C@H](C(C)C)N(C)C(=O)N1CCCOC13CN(C(=O)C#CC(C)(C)N(C)C)C3)C(=O)N1CCC[C@H](N1)C(=O)OCC(C)(C)C2` (atropisomer, axis not shown) [Compound A666], the IC50 lay within 0.01 to 0.1 µM.

For the compound `C=CC(=O)N1CCC(C(=O)N(C)[C@H](C(=O)N[C@H]2Cc3cc(O)cc(c3)-c3ccc4c(c3)c(c(-c3ccccc3CN(C)C)n4CC)CC(C)(C)COC(=O)[C@@H]3CCCN(N3)C2=O)C(C)C)CC1` [Compound A33], the IC50 is 0.1 to 1 µM. As for `C=CC(=O)N1CC[C@H](C(=O)N(C)[C@H](C(=O)N[C@H]2Cc3cc(O)cc(c3)-c3ccc4c(c3)c(c(-c3cnn(C)c3)n4CC)CC(C)(C)COC(=O)[C@@H]3CCCN(N3)C2=O)C(C)C)C1` [Compound A99], the IC50 was 0.01 to 0.1 µM. Consider `CC#CC(=O)N1CC[C@H](C(=O)N(C)[C@H](C(=O)N[C@H]2Cc3cc(O)cc(c3)-c3ccc4c(c3)c(c(-c3cccnc3[C@H](C)OC)n4CC)CC(C)(C)COC(=O)[C@@H]3CCCN(N3)C2=O)C(C)C)C1` [Compound A145, (2S)-2-{1-[(3S)-1-(but-2-ynoyl)pyrrolidin-3-yl]-N-methylformamido}-N-[(8S,14S,20M)-22-ethyl-4-hydroxy-21-{2-[(1S)-1-methoxyethyl]pyridin-3-yl}-18,18-dimethyl-9,15-dioxo-16-oxa-10,22,28-triazapentacyclo[18.5.2.1^2,^6.1^10,^14.0^23,^27]nonacosa-1(26),2,4,6(29),20,23(27),24-heptaen-8-yl]-3-methylbutanamide], for which the IC50 is < 0.01 µM and 0.01 to 0.1 µM. Regarding `C=CC(=O)N1CC[C@H](C(=O)N(C)[C@H](C(=O)N[C@H]2Cc3cc(OC(=O)CCN4CCN(C)CC4)cc(c3)-c3ccc4c(c3)c(c(-c3ccccc3CCOC)n4CC)CC(C)(C)COC(=O)[C@@H]3CCCN(N3)C2=O)C(C)C)C1` [Compound A7], the IC50 was 0.1 to 1 µM. For `C=CC(=O)N1CC(C(=O)N(C)[C@H](C(=O)N[C@H]2Cc3cc(O)cc(c3)-c3ccc4c(c3)c(c(-c3cccnc3COC)n4CC)CC(C)(C)COC(=O)[C@@H]3CCCN(N3)C2=O)C(C)C)C1` [Compound A70], the IC50 was 0.01 to 0.1 µM. Still for that read-out and setting: the value for `C=CC(=O)N1CC[C@H](C(=O)N(C)[C@H](C(=O)N[C@H]2Cc3cc(O)cc(c3)-c3ccc4c(c3)c(c(-c3cccnc3COC)n4CC#N)CC(C)(C)COC(=O)[C@@H]3CCCN(N3)C2=O)C(C)C)C1` [Compound A93] was 0.01 to 0.1 µM. In the case of `C=CC(=O)N1CCC(C(=O)N(C)[C@H](C(=O)N[C@H]2Cc3cc(O)cc(c3)-c3ccc4c(c3)c(c(-c3ccccc3CCOC)n4CC)CC(C)(C)COC(=O)[C@@H]3CCCN(N3)C2=O)C(C)C)CC1` [Compound A14], the 50% inhibitory concentration (IC50) fell in the range of 0.1 to 1 µM. With `C=CC(=O)N1CC[C@H](C(=O)N(C)[C@H](C(=O)N[C@H]2Cc3cc(O)cc(c3)-c3ccc4c(c3)c(c(-c3ccc5c(c3)OCCN5C)n4CC)CC(C)(C)COC(=O)[C@@H]3CCCN(N3)C2=O)C(C)C)C1` [Compound A50], the IC50 lay within 0.1 to 1 µM.

Turning to `CCn1c(-c2cccnc2[C@H](C)OC)c2c3cc(ccc31)-c1csc(n1)C[C@H](NC(=O)[C@H](C(C)C)N(C)C(=O)N1C[C@@H]3CN(C(=O)C#CC(C)(C)N(C)C)CC[C@@H]31)C(=O)N1CCC[C@H](N1)C(=O)OCC(C)(C)C2` (atropisomer, axis not shown) [Compound A625], the IC50 lay within 0.01 to 0.1 µM.

Staying with this assay, now noted: read-out: H358 Cell Viability assay data (K-Ras G12C, IC50); Table 5.
On to `C=CC(=O)N1CC[C@H](C(=O)N(C)[C@H](C(=O)N[C@H]2Cc3cccc(c3)-c3ccc4c(c3)c(c(-c3cc(C5CCN(C)CC5)cnc3[C@H](C)OC)n4CC)CC(C)(C)COC(=O)[C@@H]3CCCN(N3)C2=O)C(C)C)C1` (atropisomer, axis not shown) [Compound A515], for which the IC50 was less than 0.01 µM.

For `C=CC(=O)N1CC[C@H](C(=O)N(C)[C@H](C(=O)N[C@H]2Cc3cccc(c3)-c3ccc4c(c3)c(c(-c3cc(C5=CCN(C)CC5)cnc3[C@H](C)OC)n4CC)CC(C)(C)COC(=O)[C@@H]3CCCN(N3)C2=O)C(C)C)C1` [Compound A514], the IC50 is 0.1 to 1 µM.
